Target: Cathepsin S (Homo sapiens, UniProt P25774)
Test: Cathepsin S inhibition, fluorogenic peptide substrate kinetic assay
Format: biochemical
Conditions: Cathepsin S inhibition constant; read-out: Ki Cat. S
Experimental: The optimal substrate for cathepsin S, acetyl-histidine-proline-valine-lysine-amino carbamoyl coumarin, was identified from screening a combinatorial library of fluorogenic peptide substrates (Harris, J. L., B. J. Backes, et al. Proc Natl Acad Sci USA 2000, 97(14), 7754-9). Kinetic measurements are performed in a total reaction volume of 30 μl in 384-well microtiter plates. […] Control reactions in the absence of inhibitor are performed in replicates of 24. The reactions are initiated by adding the substrate, acetyl-histidine-proline-valine-lysine-amino carbamoyl coumarin, to a final concentration of 50 μM. The rate of substrate hydrolysis is measured by monitoring the increase in fluorescence at an excitation wavelength of 380 nm and an emission wavelength of 450 nm that results from cleavage of the aniline bond in the substrate by the enzyme. The apparent inhibition constants for the compounds are determined from the enzyme progress curves (Kuzmic, P., K. C. Elrod, et al. Anal Biochem 2000, 286(1), 45-50) and are then used to calculate the inhibition constants for competitive inhibitors.

Sequence of Cathepsin S (P25774 115-331, species assumed): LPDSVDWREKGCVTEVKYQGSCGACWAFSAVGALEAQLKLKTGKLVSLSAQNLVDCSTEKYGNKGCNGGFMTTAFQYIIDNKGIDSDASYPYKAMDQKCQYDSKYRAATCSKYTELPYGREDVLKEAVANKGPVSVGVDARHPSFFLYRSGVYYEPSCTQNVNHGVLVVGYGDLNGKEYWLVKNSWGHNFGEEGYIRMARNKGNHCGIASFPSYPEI

| Ki [nM] | SMILES |
| --- | --- |
| < 100 | C[C@@H](CN1CCc2cc(F)ccc21)NC(=O)[C@H](CC1CCCCC1)Nc1nc2ccc(Cl)cc2s1 [Example 34, 2-(S)-(6-Chloro-benzothiazol-2-ylamino)-3-cyclohexyl-N-[2-(5-fluoro-2,3-dihydro-indol-1-yl)-1-(S)-methyl-ethyl]-propionamide] |
| < 100 | C[C@@H](CNc1ccc(OC(F)(F)F)cc1)NC(=O)[C@H](CC1CC1)Nc1nc2cccc(Cl)c2o1 [Example 43, 2-(S)-(7-Chloro-benzooxazol-2-ylamino)-3-cyclopropyl-N-[1-(S)-methyl-2-(4-trifluoromethoxy-phenylamino)-ethyl]-propionamide] |
| < 10000 | Cc1cc(NC[C@H](C)NC(=O)[C@H](CC2CCCCC2)Nc2nc3cccc(Cl)c3o2)no1 [Example 25, 2-(S)-(7-Chloro-benzooxazol-2-ylamino)-3-cyclohexyl-N-[1-(S)-methyl-2-(5-methyl-isoxazol-3-ylamino)-ethyl]-propionamide] |
| < 100 | C[C@@H](CNc1ccc(OC(F)(F)F)cc1)NC(=O)[C@H](CC1CCCC1)Nc1nc2cccc(Cl)c2o1 [Example 39, 2-(S)-(7-Chloro-benzooxazol-2-ylamino)-3-cyclopentyl-N-[1-(S)-methyl-2-(4-trifluoromethoxy-phenylamino)-ethyl]-propionamide] |
| < 100 | O=C(O)C[C@@H](CN1CCc2cc(F)ccc21)NC(=O)[C@H](CC1CCCCC1)Nc1nc2ccc(Cl)cc2s1 [Example 29, 3-(S)-[2-(S)-(6-Chloro-benzothiazol-2-ylamino)-3-cyclohexyl-propionylamino]-4-(5-fluoro-2,3-dihydro-indol-1-yl)-butyric acid] |
| < 100 | C[C@@H](CNc1ccc(OC(F)(F)F)cc1)NC(=O)[C@H](CC(C)(C)C)Nc1nc2cccc(Cl)c2o1 [Example 41, 2-(S)-(7-Chloro-benzooxazol-2-ylamino)-4,4-dimethyl-pentanoic acid [1-(S)-methyl-2-(4-trifluoromethoxy-phenylamino)-ethyl]-amide] |
| < 100 | COC(=O)c1ccc2nc(N[C@@H](CC3CCCCC3)C(=O)N[C@@H](C)CNc3ccc(F)cc3)oc2c1 [Example 24, (S,S)2-{2-Cyclohexyl-1-[2-(4-fluoro-phenylamino)-1-methyl-ethylcarbamoyl]-ethylamino}-benzooxazole-6-carboxylic acid methyl ester] |
